Here are results for 10 molecules from patent US20260306502A1, “MITOCHONDRIAL UNCOUPLERS FOR TREATMENT OF METABOLIC DISEASES AND CANCER” (Mito Biopharma, LLC, priority 2022, published 2026).

The structures appear in SMILES notation. Like-named read-outs stand apart in the source and are kept apart here.

A short description of data set [1]: Metabolic stability assay in rat liver microsomes. The data set is classed as in vitro ADME. To be noted: for half-life at 1 µM: rat, liver microsomes. On the procedure:
The metabolic stability of the compounds was evaluated in incubation with rat liver microsomes.

A short description of data set [2]: Rat pharmacokinetics study, oral gavage (Example B8). The data set is classed as in vivo. On the procedure: Pharmacokinetics of the testing compounds was determined in male SD rats, n=3. Briefly, each compound was prepared in 0.5% CMC-Na and 1% Tween in water to yield a homogeneous suspension at 1 mg/ml, and then administrated to 10 mg/kg via oral gavage. The animals were fasted overnight before dosing and fed for 4 hour post dosing with free access to water for all time. Blood samples were collected at pre-dose, 0.083, 0.25, 0.5, 1, 2, 4, 8 and 24 hours, into K2EDTA-coated tube via tail vein for serial sampling and cardiac puncture for terminal sampling. […] Plasma samples were stored at approximately −80° C. until analysis. The compound in the plasma samples were then extracted and concentrations determined by LC-MS/MS.

Data set [3] in a line: PO pharmacokinetic study, oral exposure (Example B3). The data set is classed as in vivo. Particulars: for AUC at 24 h / AUC(0-t) at 24 h: blood, po; for AUC at 24 h: 10 mg/kg gavage; for Fold increase over Compound 27 in U.S. Pat. No. 10,227,315: ratio of oral AUC 24 hr. On the procedure:
The blood concentration of the compound was then determined at 0 (pre-dosing), 5 min, 15 min, 30 min, 1 hr, 2 hr, 4 hr, 8 hr, 24 hr time points by LC-MS/MS analysis (See Tables 1 and 2, vide supra).

For another data set, the system named is C2C12 cells. The data set can be described thus: Mitochondrial uncoupling activity by oxygen consumption rate (OCR) assay, Seahorse, in presence of oligomycin. The data set is classed as cell-based, mouse. To be noted: Mus musculus, C2C12; in the presence of oligomycin 2.5 μM; read-out: COCR-min: minimal concentration increasing OCR in the presence of oligomycin. Summed up: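 Mouse C2C12 myoblasts grown in 10% FBS medium had OCR measured on Seahorse XF96/XF24 sequentially: basal, after 2.5 μM oligomycin (final), then after compound at varying concentrations. Rotenone/antimycin A confirmed mitochondrial origin. COCR-min is the minimal compound concentration inducing OCR in the presence of oligomycin.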

In a further data set the test system is C2C12. Kind of data set: Cell growth inhibition assay (SRB), C2C12. Type of data set: cell-based. Particulars: Mus musculus, C2C12, 48 h. On the procedure: Cell growth inhibition assays were performed using a protocol standardized by National Cancer Institute (NCI) for evaluating anti-cancer drugs. Various mammalian cell lines were used for the assays. Briefly, the cells were inoculated into 96 well microtiter plates. After cell inoculation, the microtiter plates were incubated for cell growth for 24 h prior to the addition of compounds. After 24 h, two plates of each cell line were fixed in situ with TCA, to represent a measurement of the cell population for each cell line at the time of compound addition (Tz). Test compounds were solubilized in dimethyl sulfoxide. At the time of test compound addition, five 10-fold or ½ log serial dilutions were made to provide a total of five test compound concentrations plus control. Aliquots of 100 μl of these different test compound dilutions were added to the appropriate microtiter wells already containing 100 μl of the medium, resulting in the required final test compound concentrations. […] The bound stain was subsequently solubilized with 10 mM trizma base, and the absorbance was read on an automated plate reader at a wavelength of 515 nm. Using the seven absorbance measurements [time zero, (Tz), control growth, (C), and test growth in the presence of a compound at the five concentration levels (Ti)], the percentage growth was calculated at each of the test compound concentrations levels.

Data set [4] deals with high-fat diet (HFD)-induced diabetic mouse model. Kind of data set: Efficacy in high-fat diet (HFD)-induced diabetic/fatty liver mouse model. Type of data set: in vivo. Particulars: Mus musculus; HFD model, oral daily gavage; read-out: Efficacious dosage to reduce blood glucose in mouse models, oral daily gavage. The protocol:
For HFD induced diabetic mouse model, C57Bl6 mice (male, n=6) were induced to obese and diabetic conditions by feeding high-fat diet (HFD, 60% fat calories, Research Diet, Inc. New Brunswick, NJ) for 3-4 months. […] During the 3-week period, the mice continued feeding HFD. […] The blood glucose levels were measured after an overnight fast, plasma insulin levels were tested after 5-6 hours fast, and the glycated HbA1c levels were determined in whole blood samples.
FIG. 15C and FIG. 15D show liver sections from mice fed HFD following 3 weeks of treatment with Compounds 25 and 64, respectively (P.O. dosing of 5 mg/kg, by daily gavage).
Experiments were similarly performed with other compounds, in either high-fat diet induced diabetes and fatty liver models, or in db/db mouse model, or in both, by daily oral gavage administration with low dosages.

Data set [5] deals with cultured mammalian cells, the NIH-3T3 cells, C2C12 cells, and other mammalian cell lines. Kind of data set: Mitochondrial membrane potential (MMP) assay, TMRE (or DilC1(5)) staining, related to OCR induction. Type of data set: cell-based. To be noted: ratio of concentration leading to 10% MMP retention (90% MMP loss, TMRE) to minimal concentration leading to OCR increase. The protocol:
Mitochondrial membrane potential assay was performed using the standard TMRE (tetramethylrhodamine ethyl ester) staining method with cultured mammalian cells, the NIH-3T3 cells, C2C12 cells, and other mammalian cell lines. Cells were seeded in 6-well plates and cultured in DMEM medium supplemented with 10% fetal bovine serum and 2 mM glutamine. Cells were allowed to grow to the logarithmic growth phase prior to experiments. The cells were treated with each individual compound at various concentrations for two hours, followed by staining with TMRE at a final concentration of 100 nM for 15 minutes. The cells were then washed once with PBS, and examined under fluorescence microscopy. Cells treated with various concentrations of niclosamide ethanolamine were used as a positive control.
In some examples, mitochondrial membrane potential was measured with DilC1(5) staining. Briefly, DilC1(5) was added to the cells to 50 nM final concentration and the cells were incubated at 37° C., 5% CO2, for 15 to 30 minutes. Cells were washed once by adding 2 mL of warm phosphate-buffered saline (PBS). Mitochondrial staining was determined by fluorescence microscopy with 633 nm excitation using standard filters for far-red emission.
Using the ratio between C10% TMRE (the concentration at which 10% MMP remains, i.e. 90% MMP is lost) and Cmin-OCR (the concentration at which minimal OCR induction is observed), we categorized the MMP-retaining uncouplers into two groups.

The next data set relates to animal models. Particulars: mixed with food, cited from earlier work; for dose required to achieve efficacy, equivalent: equivalent of ppm in diet.
The test system of a further data set is HepG2. The data set can be described thus: Cell growth inhibition assay (SRB), HepG2. Type of data set: cell-based. To be noted: Homo sapiens, HepG2, 48 h. On the procedure:
Cell growth inhibition assays were performed using a protocol standardized by National Cancer Institute (NCI) for evaluating anti-cancer drugs. Various mammalian cell lines were used for the assays. Briefly, the cells were inoculated into 96 well microtiter plates. After cell inoculation, the microtiter plates were incubated for cell growth for 24 h prior to the addition of compounds. After 24 h, two plates of each cell line were fixed in situ with TCA, to represent a measurement of the cell population for each cell line at the time of compound addition (Tz). Test compounds were solubilized in dimethyl sulfoxide. At the time of test compound addition, five 10-fold or ½ log serial dilutions were made to provide a total of five test compound concentrations plus control. Aliquots of 100 μl of these different test compound dilutions were added to the appropriate microtiter wells already containing 100 μl of the medium, resulting in the required final test compound concentrations. Following test compound addition, the plates were incubated for an additional 48 h. The assay was terminated by the addition of cold TCA. Cells were fixed in situ with 50 μl of cold 50% (w/v) TCA (final concentration, 10% TCA), washed five times with tap water and air-dried. Sulforhodamine B (SRB) solution (100 μl) at 0.4% (w/v) in 1% acetic acid was added to each well, and plates were incubated for 10 minutes at room temperature. After staining, the unbound dye was removed by washing five times with 1% acetic acid and the plates were air-dried. The bound stain was subsequently solubilized with 10 mM trizma base, and the absorbance was read on an automated plate reader at a wavelength of 515 nm. Using the seven absorbance measurements [time zero, (Tz), control growth, (C), and test growth in the presence of a compound at the five concentration levels (Ti)], the percentage growth was calculated at each of the test compound concentrations levels.

The conditions of data set [6]: in words, cited from earlier work.

As to `CN(C)CCc1cc(Cl)cc(C(=O)Nc2nc3ccc(C(F)(F)F)cc3s2)c1O` [Compound 2 of U.S. Pat. No. 10,227,315], the “Metabolic stability half-life (T1/2, min, rat liver microsome)” value in data set [1] (1 μM compound, 0.5 mg/ml microsomal protein, 37° C., 1 µM) is given as 2,132 min. For the same molecule, the half-life at 1 µM in data set [1] (1 μM compound, 0.5 mg/ml microsomal protein, 37° C., read-out: Metabolic stability half-life (T1/2, min, rat liver microsome)) came out at 35.5 h; in data set [1] (rat liver microsomes, read-out: rat microsome metabolic stability, half-life) it was 35.5 h. Besides, in [2] (10 mg/kg oral gavage), the “Rat Oral PK (in vivo) half-life (T1/2, hour)” value was 66.9 h. The molecule further had a half-life in data set [2] (plasma, 10 mg/kg, oral) of 66.9 h.

As usually defined, the AUC is the area under the concentration-time curve, a measure of exposure. Read a high AUC as more exposure. The term GI50 denotes the concentration at which growth is held to half of that of the control. In [3], `C[C@@H]1CN(Cc2cc(Cl)cc(C(=O)Nc3nc4ccc(C(F)(F)F)cc4s3)c2O)C[C@H](C)O1.Cl` [Compound 11, 5-chloro-3-((cis-2,6-dimethylmorpholino)methyl)-2-hydroxy-N-(6-(trifluoromethyl)benzo[d]thiazol-2-yl)benzamide] had an exposure (AUC) at 24 h of 60000 to 120000 ng·h/mL. In addition, in the data set on C2C12 cells, the minimal effective concentration was under 5 µM. In the data set on C2C12, this molecule showed a GI50 of 5 to 20 µM. Moreover, the minimal effective dose in data set [4] is 1 mg/kg.

In data set [3], `COCCOCc1cc(C(F)(F)F)cc2sc(NC(=O)c3cc(Cl)cc(C)c3O)nc12` [Compound 13, 5-chloro-2-hydroxy-N-(4-((2-methoxyethoxy)methyl)-6-(trifluoromethyl)benzo[d]thiazol-2-yl)-3-methylbenzamide] gave an AUC at 24 h of 30000 to 60000 ng·h/mL. In the data set on C2C12 cells, the minimal effective concentration is under 5 µM. This molecule also came in with a GI50 with C2C12 of 5 to 20 µM. In addition, in [5], the C10%TMRE/Cmin-OCR was about 13.

Broadly, the AUC(0-t) is the area under the concentration-time curve up to a stated or last time point. Low readings indicate less exposure, high ones more exposure. Turning to `CCc1cc(Cl)cc(C(=O)Nc2nc3ccc(C(F)(F)F)cc3s2)c1O` [Compound 27 in U.S. Pat. No. 10,227,315, reference compound], the AUC(0-t) at 24 h in data set [3] (10 mg/kg) is about 3000 ng·h/mL. The “Fold increase over Compound 27 in U.S. Pat. No. 10,227,315” value in [3] amounted to 1.0. Besides, in the data set on animal models, the “dose required to achieve efficacy, equivalent” value (“dose required … equivalent” below) was 60 to 75 mg/kg/day and the “dose required to achieve efficacy, in diet” value (“dose required … in diet” below) is listed as 600-750 ppm.

The molecule `Cc1cc(Cl)cc(C(=O)Nc2nc3ccc(C(F)(F)F)cc3s2)c1O` [Compound 28 in U.S. Pat. No. 10,227,315, reference compound] had an AUC(0-t) at 24 h in data set [3] (10 mg/kg) of 4410 ng·h/mL. Besides, the “Fold increase over Compound 27 in U.S. Pat. No. 10,227,315” value in [3] is given as 1.5. Besides, in the data set with animal models, the “dose required … equivalent” value is 60 to 75 mg/kg/day and the “dose required … in diet” value is 600-750 ppm.

Consider `O=C(Nc1nc2ccc(C(F)(F)F)cc2s1)c1cc(Cl)cc(CN2CCC(C(F)(F)F)CC2)c1O` [Compound 57, 5-chloro-2-hydroxy-N-(6-(trifluoromethyl)benzo[d]thiazol-2-yl)-3-((4-(trifluoromethyl)piperidin-1-yl)methyl)benzamide], for which, in the data set with C2C12 cells, the minimal effective concentration is under 5 µM. In the data set on HepG2, this molecule displayed a GI50 of under 5 µM.

With `COCc1cc(C(F)(F)F)cc2sc(NC(=O)c3cc(Cl)cc(C)c3O)nc12` [Compound 68, 5-chloro-2-hydroxy-N-(4-(methoxymethyl)-6-(trifluoromethyl)benzo[d]thiazol-2-yl)-3-methylbenzamide], the area under the curve (AUC) at 24 h in data set [3] was in the range of 30000 to 60000 ng·h/mL. The minimal effective concentration with C2C12 cells is under 5 µM. The molecule further showed a GI50 in the data set with HepG2 of under 5 µM.

With `Cc1cc(Cl)cc(C(=O)Nc2nc3c(C4CCCO4)cc(C(F)(F)F)cc3s2)c1O` (stereo not shown) [Compound 71, 5-chloro-2-hydroxy-3-methyl-N-(4-(tetrahydrofuran-2-yl)-6-(trifluoromethyl)benzo[d]thiazol-2-yl)benzamide], the minimal effective concentration with C2C12 cells was under 5 µM. In the data set on HepG2, this molecule yielded a GI50 of under 5 µM.

In the case of `O=[N+]([O-])c1ccc(O)c([N+](=O)[O-])c1` [DNP, 2,4-dinitrophenol], in data set [6], the half-life entry is reported as “days to weeks”. In addition, the toxicity in humans result in data set [6] (human obesity treatment) was “exhibited high levels of toxicity and had a narrow therapeutic window”. Besides, the C10%TMRE/Cmin-OCR in data set [5] is at most 3.

For `O=C(Nc1ccc([N+](=O)[O-])cc1Cl)c1cc(Cl)ccc1O` [niclosamide ethanolamine], the AUC(0-t) at 24 h in data set [3] (50 mg/kg) is about 1800 ng·h/mL. For the same molecule, in the data set on animal models, the “dose required … equivalent” value was 150 mg/kg/day and the “dose required … in diet” value is 1500 ppm.
